This passage reports viability, T/C results from PubChem BioAssay AID2060508 (Molecular Pharmacology Branch, DTP, NCI, 2025).

By viability, T/C is commonly meant the result in the treated group divided by that in the control group, in per cent.

Each structure is given as a SMILES string.
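Note: spheroids exposed to compounds for seven days; 100% = DMSO vehicle control viability.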

The test system of one assay is 454973-116-R2-J3-PDC spheroids, viability, % test/control. Nature of the assay: Anticancer human tumor 454973-116-R2-J3-PDC patient-derived pancreatic carcinoma cell line growth inhibition [GQUAD]. The note with it: second compound 0.0316 µM; first compound 3.16 µM; hits give low values; spheroids with HUVEC and MSC. An outline of the steps:
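Tumor cells were grown as complex spheroids with HUVEC endothelial cells and mesenchymal stem cells as stroma. G-quadruplex stabilizers were combined with targeted agents over half-log dilutions from near the clinical Cmax, or from 10 microM.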
Take `COc1ncnc(C2CC2)c1-c1ncc2cnn(Cc3ccc(-c4nc(C(F)(F)F)cn4C(C)C)cc3)c2n1` + CN(C)c1ccc(Nc2c3ccc(NC(=O)CCN4CCCC4)cc3nc3cc(NC(=O)CCN4CCCC4)ccc23)cc1: the viability, T/C was 99.5%.

Take `O=C(NO)c1cnc(N2CCN(S(=O)(=O)c3ccc4ccccc4c3)CC2)nc1` + CN(C)c1ccc(Nc2c3ccc(NC(=O)CCN4CCCC4)cc3nc3cc(NC(=O)CCN4CCCC4)ccc23)cc1: the viability, T/C was 0.12%.

The assay is the same for the next values; noted with them: second compound 0.0316 µM; first compound 10 µM; hits give low values; spheroids with HUVEC and MSC.
As to `C=CCn1c(=O)c2cnc(Nc3ccc(N4CCN(C)CC4)cc3)nc2n1-c1cccc(C(C)(C)O)n1` + CN(C)c1ccc(Nc2c3ccc(NC(=O)CCN4CCCC4)cc3nc3cc(NC(=O)CCN4CCCC4)ccc23)cc1, the viability, T/C was 8.82%.

Turning to `CC(C)(O)C1CCC(Nc2ccc3ncc(-c4cccc(C(F)(F)F)c4)n3n2)CC1` (configuration not stated) + CN(C)c1ccc(Nc2c3ccc(NC(=O)CCN4CCCC4)cc3nc3cc(NC(=O)CCN4CCCC4)ccc23)cc1, the viability, T/C is 29.5%.

As to `COc1ncnc(C2CC2)c1-c1ncc2cnn(Cc3ccc(-c4nc(C(F)(F)F)cn4C(C)C)cc3)c2n1` + CN(C)c1ccc(Nc2c3ccc(NC(=O)CCN4CCCC4)cc3nc3cc(NC(=O)CCN4CCCC4)ccc23)cc1, the viability, T/C is 102%.

As for `O=C(NO)c1cnc(N2CCN(S(=O)(=O)c3ccc4ccccc4c3)CC2)nc1` + CN(C)c1ccc(Nc2c3ccc(NC(=O)CCN4CCCC4)cc3nc3cc(NC(=O)CCN4CCCC4)ccc23)cc1, the viability, T/C is 1%.

The same assay, now with this note: second compound 0.1 µM; first compound 0.0316 µM; hits give low values; spheroids with HUVEC and MSC.
As to `C=CCn1c(=O)c2cnc(Nc3ccc(N4CCN(C)CC4)cc3)nc2n1-c1cccc(C(C)(C)O)n1` + CN(C)c1ccc(Nc2c3ccc(NC(=O)CCN4CCCC4)cc3nc3cc(NC(=O)CCN4CCCC4)ccc23)cc1, the viability, T/C is 108%.

`CC(C)(O)C1CCC(Nc2ccc3ncc(-c4cccc(C(F)(F)F)c4)n3n2)CC1` (configuration not stated) + CN(C)c1ccc(Nc2c3ccc(NC(=O)CCN4CCCC4)cc3nc3cc(NC(=O)CCN4CCCC4)ccc23)cc1: the viability, T/C is 93.8%.

Turning to `COc1ncnc(C2CC2)c1-c1ncc2cnn(Cc3ccc(-c4nc(C(F)(F)F)cn4C(C)C)cc3)c2n1` + CN(C)c1ccc(Nc2c3ccc(NC(=O)CCN4CCCC4)cc3nc3cc(NC(=O)CCN4CCCC4)ccc23)cc1, the viability, T/C is 102%.

On to `O=C(NO)c1cnc(N2CCN(S(=O)(=O)c3ccc4ccccc4c3)CC2)nc1` + CN(C)c1ccc(Nc2c3ccc(NC(=O)CCN4CCCC4)cc3nc3cc(NC(=O)CCN4CCCC4)ccc23)cc1, for which the viability, T/C is 102%.

The same assay, now with this note: second compound 0.1 µM; first compound 0.1 µM; hits give low values; spheroids with HUVEC and MSC.
Consider `C=CCn1c(=O)c2cnc(Nc3ccc(N4CCN(C)CC4)cc3)nc2n1-c1cccc(C(C)(C)O)n1` + CN(C)c1ccc(Nc2c3ccc(NC(=O)CCN4CCCC4)cc3nc3cc(NC(=O)CCN4CCCC4)ccc23)cc1, for which the viability, T/C was 98.7%.

`CC(C)(O)C1CCC(Nc2ccc3ncc(-c4cccc(C(F)(F)F)c4)n3n2)CC1` (configuration not stated) + CN(C)c1ccc(Nc2c3ccc(NC(=O)CCN4CCCC4)cc3nc3cc(NC(=O)CCN4CCCC4)ccc23)cc1: the viability, T/C is 90.3%.

In the case of `COc1ncnc(C2CC2)c1-c1ncc2cnn(Cc3ccc(-c4nc(C(F)(F)F)cn4C(C)C)cc3)c2n1` + CN(C)c1ccc(Nc2c3ccc(NC(=O)CCN4CCCC4)cc3nc3cc(NC(=O)CCN4CCCC4)ccc23)cc1, the viability, T/C was 114%.

On to `O=C(NO)c1cnc(N2CCN(S(=O)(=O)c3ccc4ccccc4c3)CC2)nc1` + CN(C)c1ccc(Nc2c3ccc(NC(=O)CCN4CCCC4)cc3nc3cc(NC(=O)CCN4CCCC4)ccc23)cc1, for which the viability, T/C is 83.4%.

Still in this assay, the particulars now being: second compound 0.1 µM; first compound 0.316 µM; hits give low values; spheroids with HUVEC and MSC.
With `C=CCn1c(=O)c2cnc(Nc3ccc(N4CCN(C)CC4)cc3)nc2n1-c1cccc(C(C)(C)O)n1` + CN(C)c1ccc(Nc2c3ccc(NC(=O)CCN4CCCC4)cc3nc3cc(NC(=O)CCN4CCCC4)ccc23)cc1, the viability, T/C was 51.8%.

With `CC(C)(O)C1CCC(Nc2ccc3ncc(-c4cccc(C(F)(F)F)c4)n3n2)CC1` (configuration not stated) + CN(C)c1ccc(Nc2c3ccc(NC(=O)CCN4CCCC4)cc3nc3cc(NC(=O)CCN4CCCC4)ccc23)cc1, the viability, T/C is 102%.

As for `COc1ncnc(C2CC2)c1-c1ncc2cnn(Cc3ccc(-c4nc(C(F)(F)F)cn4C(C)C)cc3)c2n1` + CN(C)c1ccc(Nc2c3ccc(NC(=O)CCN4CCCC4)cc3nc3cc(NC(=O)CCN4CCCC4)ccc23)cc1, the viability, T/C was 114%.

On to `O=C(NO)c1cnc(N2CCN(S(=O)(=O)c3ccc4ccccc4c3)CC2)nc1` + CN(C)c1ccc(Nc2c3ccc(NC(=O)CCN4CCCC4)cc3nc3cc(NC(=O)CCN4CCCC4)ccc23)cc1, for which the viability, T/C is 28.9%.

Still in this assay, the particulars now being: second compound 0.1 µM; first compound 1 µM; hits give low values; spheroids with HUVEC and MSC.
For `C=CCn1c(=O)c2cnc(Nc3ccc(N4CCN(C)CC4)cc3)nc2n1-c1cccc(C(C)(C)O)n1` + CN(C)c1ccc(Nc2c3ccc(NC(=O)CCN4CCCC4)cc3nc3cc(NC(=O)CCN4CCCC4)ccc23)cc1, the viability, T/C is 19.7%.

Regarding `CC(C)(O)C1CCC(Nc2ccc3ncc(-c4cccc(C(F)(F)F)c4)n3n2)CC1` (configuration not stated) + CN(C)c1ccc(Nc2c3ccc(NC(=O)CCN4CCCC4)cc3nc3cc(NC(=O)CCN4CCCC4)ccc23)cc1, the viability, T/C is 72.6%.

`COc1ncnc(C2CC2)c1-c1ncc2cnn(Cc3ccc(-c4nc(C(F)(F)F)cn4C(C)C)cc3)c2n1` + CN(C)c1ccc(Nc2c3ccc(NC(=O)CCN4CCCC4)cc3nc3cc(NC(=O)CCN4CCCC4)ccc23)cc1: the viability, T/C was 108%.

`O=C(NO)c1cnc(N2CCN(S(=O)(=O)c3ccc4ccccc4c3)CC2)nc1` + CN(C)c1ccc(Nc2c3ccc(NC(=O)CCN4CCCC4)cc3nc3cc(NC(=O)CCN4CCCC4)ccc23)cc1: the viability, T/C is 2.6%.

Still in this assay, the particulars now being: second compound 0.1 µM; first compound 3.16 µM; hits give low values; spheroids with HUVEC and MSC.
For `C=CCn1c(=O)c2cnc(Nc3ccc(N4CCN(C)CC4)cc3)nc2n1-c1cccc(C(C)(C)O)n1` + CN(C)c1ccc(Nc2c3ccc(NC(=O)CCN4CCCC4)cc3nc3cc(NC(=O)CCN4CCCC4)ccc23)cc1, the viability, T/C is 6.15%.

`CC(C)(O)C1CCC(Nc2ccc3ncc(-c4cccc(C(F)(F)F)c4)n3n2)CC1` (configuration not stated) + CN(C)c1ccc(Nc2c3ccc(NC(=O)CCN4CCCC4)cc3nc3cc(NC(=O)CCN4CCCC4)ccc23)cc1: the viability, T/C is 15.6%.

On to `COc1ncnc(C2CC2)c1-c1ncc2cnn(Cc3ccc(-c4nc(C(F)(F)F)cn4C(C)C)cc3)c2n1` + CN(C)c1ccc(Nc2c3ccc(NC(=O)CCN4CCCC4)cc3nc3cc(NC(=O)CCN4CCCC4)ccc23)cc1, for which the viability, T/C is 84.8%.

On to `O=C(NO)c1cnc(N2CCN(S(=O)(=O)c3ccc4ccccc4c3)CC2)nc1` + CN(C)c1ccc(Nc2c3ccc(NC(=O)CCN4CCCC4)cc3nc3cc(NC(=O)CCN4CCCC4)ccc23)cc1, for which the viability, T/C is 0.1%.

Staying with this assay, now noted: second compound 0.1 µM; first compound 10 µM; hits give low values; spheroids with HUVEC and MSC.
Consider `C=CCn1c(=O)c2cnc(Nc3ccc(N4CCN(C)CC4)cc3)nc2n1-c1cccc(C(C)(C)O)n1` + CN(C)c1ccc(Nc2c3ccc(NC(=O)CCN4CCCC4)cc3nc3cc(NC(=O)CCN4CCCC4)ccc23)cc1, for which the viability, T/C is 9.87%.

For the compound `CC(C)(O)C1CCC(Nc2ccc3ncc(-c4cccc(C(F)(F)F)c4)n3n2)CC1` (configuration not stated) + CN(C)c1ccc(Nc2c3ccc(NC(=O)CCN4CCCC4)cc3nc3cc(NC(=O)CCN4CCCC4)ccc23)cc1, the viability, T/C was 34.5%.

In the case of `COc1ncnc(C2CC2)c1-c1ncc2cnn(Cc3ccc(-c4nc(C(F)(F)F)cn4C(C)C)cc3)c2n1` + CN(C)c1ccc(Nc2c3ccc(NC(=O)CCN4CCCC4)cc3nc3cc(NC(=O)CCN4CCCC4)ccc23)cc1, the viability, T/C was 95.4%.

As to `O=C(NO)c1cnc(N2CCN(S(=O)(=O)c3ccc4ccccc4c3)CC2)nc1` + CN(C)c1ccc(Nc2c3ccc(NC(=O)CCN4CCCC4)cc3nc3cc(NC(=O)CCN4CCCC4)ccc23)cc1, the viability, T/C is 0.19%.

The same assay, now with this note: second compound 0.316 µM; first compound 0.0316 µM; hits give low values; spheroids with HUVEC and MSC.
As to `C=CCn1c(=O)c2cnc(Nc3ccc(N4CCN(C)CC4)cc3)nc2n1-c1cccc(C(C)(C)O)n1` + CN(C)c1ccc(Nc2c3ccc(NC(=O)CCN4CCCC4)cc3nc3cc(NC(=O)CCN4CCCC4)ccc23)cc1, the viability, T/C is 99.4%.

As for `CC(C)(O)C1CCC(Nc2ccc3ncc(-c4cccc(C(F)(F)F)c4)n3n2)CC1` (configuration not stated) + CN(C)c1ccc(Nc2c3ccc(NC(=O)CCN4CCCC4)cc3nc3cc(NC(=O)CCN4CCCC4)ccc23)cc1, the viability, T/C was 95.3%.

Regarding `COc1ncnc(C2CC2)c1-c1ncc2cnn(Cc3ccc(-c4nc(C(F)(F)F)cn4C(C)C)cc3)c2n1` + CN(C)c1ccc(Nc2c3ccc(NC(=O)CCN4CCCC4)cc3nc3cc(NC(=O)CCN4CCCC4)ccc23)cc1, the viability, T/C is 94.2%.

On to `O=C(NO)c1cnc(N2CCN(S(=O)(=O)c3ccc4ccccc4c3)CC2)nc1` + CN(C)c1ccc(Nc2c3ccc(NC(=O)CCN4CCCC4)cc3nc3cc(NC(=O)CCN4CCCC4)ccc23)cc1, for which the viability, T/C was 86%.

The assay is the same for the next values; noted with them: second compound 0.316 µM; first compound 0.1 µM; hits give low values; spheroids with HUVEC and MSC.
Take `C=CCn1c(=O)c2cnc(Nc3ccc(N4CCN(C)CC4)cc3)nc2n1-c1cccc(C(C)(C)O)n1` + CN(C)c1ccc(Nc2c3ccc(NC(=O)CCN4CCCC4)cc3nc3cc(NC(=O)CCN4CCCC4)ccc23)cc1: the viability, T/C was 90.7%.

In the case of `CC(C)(O)C1CCC(Nc2ccc3ncc(-c4cccc(C(F)(F)F)c4)n3n2)CC1` (configuration not stated) + CN(C)c1ccc(Nc2c3ccc(NC(=O)CCN4CCCC4)cc3nc3cc(NC(=O)CCN4CCCC4)ccc23)cc1, the viability, T/C was 90.3%.

`COc1ncnc(C2CC2)c1-c1ncc2cnn(Cc3ccc(-c4nc(C(F)(F)F)cn4C(C)C)cc3)c2n1` + CN(C)c1ccc(Nc2c3ccc(NC(=O)CCN4CCCC4)cc3nc3cc(NC(=O)CCN4CCCC4)ccc23)cc1: the viability, T/C was 104%.

For `O=C(NO)c1cnc(N2CCN(S(=O)(=O)c3ccc4ccccc4c3)CC2)nc1` + CN(C)c1ccc(Nc2c3ccc(NC(=O)CCN4CCCC4)cc3nc3cc(NC(=O)CCN4CCCC4)ccc23)cc1, the viability, T/C is 83.4%.

The assay is the same for the next values; noted with them: second compound 0.316 µM; first compound 0.316 µM; hits give low values; spheroids with HUVEC and MSC.
In the case of `C=CCn1c(=O)c2cnc(Nc3ccc(N4CCN(C)CC4)cc3)nc2n1-c1cccc(C(C)(C)O)n1` + CN(C)c1ccc(Nc2c3ccc(NC(=O)CCN4CCCC4)cc3nc3cc(NC(=O)CCN4CCCC4)ccc23)cc1, the viability, T/C was 59.2%.

Consider `CC(C)(O)C1CCC(Nc2ccc3ncc(-c4cccc(C(F)(F)F)c4)n3n2)CC1` (configuration not stated) + CN(C)c1ccc(Nc2c3ccc(NC(=O)CCN4CCCC4)cc3nc3cc(NC(=O)CCN4CCCC4)ccc23)cc1, for which the viability, T/C is 83.9%.

For `COc1ncnc(C2CC2)c1-c1ncc2cnn(Cc3ccc(-c4nc(C(F)(F)F)cn4C(C)C)cc3)c2n1` + CN(C)c1ccc(Nc2c3ccc(NC(=O)CCN4CCCC4)cc3nc3cc(NC(=O)CCN4CCCC4)ccc23)cc1, the viability, T/C is 102%.

Take `O=C(NO)c1cnc(N2CCN(S(=O)(=O)c3ccc4ccccc4c3)CC2)nc1` + CN(C)c1ccc(Nc2c3ccc(NC(=O)CCN4CCCC4)cc3nc3cc(NC(=O)CCN4CCCC4)ccc23)cc1: the viability, T/C is 26.8%.
